Activity calls are given as the source filed them.

Our source for the IC50, EC50 and AC50 values is ChEMBL document CHEMBL1201862, “PubChem BioAssay data set” (2004).

The target of experiment [1] is 26S proteasome non-ATPase regulatory subunit 14 (Homo sapiens, UniProt O00487). Kind of experiment: inhibition of proteasome subunit RPN11 – biochemical, fluorescence polarization, uHTS hits, confirmation (AID 602368). The class given is functional. A general note: Fluorescence polarisation rises when a labelled molecule tumbles more slowly, as on binding a larger partner.

The target in the next experiment is Prothrombin (Bos taurus, UniProt P00735). Nature of the experiment: thrombin inhibition, dose response, biochemical, fluorescence polarization, uHTS hits (AID 602369). The class given is functional.
The target in experiment [2] is T1, Low molecular weight phosphotyrosine protein phosphatase (Homo sapiens, UniProt P24666).
T1 sequence (P24666 whole entry): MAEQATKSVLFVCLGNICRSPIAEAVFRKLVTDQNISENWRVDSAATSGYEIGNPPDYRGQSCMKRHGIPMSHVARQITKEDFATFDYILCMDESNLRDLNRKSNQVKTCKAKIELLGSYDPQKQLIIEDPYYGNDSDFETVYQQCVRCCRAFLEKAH
The class given is functional. The settings on record: read-out: IC50_Mean.

The target in experiment [3] is T2, Carboxy-terminal domain RNA polymerase II polypeptide A small phosphatase 1 (Homo sapiens, UniProt Q9GZU7).
T2 sequence (Q9GZU7 whole entry): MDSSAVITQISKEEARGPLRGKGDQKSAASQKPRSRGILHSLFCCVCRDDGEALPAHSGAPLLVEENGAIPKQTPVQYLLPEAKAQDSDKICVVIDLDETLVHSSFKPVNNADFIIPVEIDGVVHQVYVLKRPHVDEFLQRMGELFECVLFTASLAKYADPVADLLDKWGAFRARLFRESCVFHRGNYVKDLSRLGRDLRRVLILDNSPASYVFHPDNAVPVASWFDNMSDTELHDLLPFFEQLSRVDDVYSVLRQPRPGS
Kind of experiment: inhibitors of CTDSP1, concentration-response testing, biochemical assay, absorbance-based, actives from ultra-high-throughput screening (AID 540297). The class given is functional.

In experiment [4] the target is 72 kDa type IV collagenase (Homo sapiens, UniProt P08253). Kind of experiment: Dose Response validation of uHTS RPN11 inhibitor hits using a MMP-2 Fluorescence assay. The class given is functional.
In experiment [5] the target is T1, Low molecular weight phosphotyrosine protein phosphatase. The class given is functional. The settings on record: read-out: IC50_Mean. This is another data set of the same source.
Experiment [6] deals with T3, Zinc finger protein mex-5 (Caenorhabditis elegans, UniProt Q9XUB2).
T3 sequence (Q9XUB2 whole entry): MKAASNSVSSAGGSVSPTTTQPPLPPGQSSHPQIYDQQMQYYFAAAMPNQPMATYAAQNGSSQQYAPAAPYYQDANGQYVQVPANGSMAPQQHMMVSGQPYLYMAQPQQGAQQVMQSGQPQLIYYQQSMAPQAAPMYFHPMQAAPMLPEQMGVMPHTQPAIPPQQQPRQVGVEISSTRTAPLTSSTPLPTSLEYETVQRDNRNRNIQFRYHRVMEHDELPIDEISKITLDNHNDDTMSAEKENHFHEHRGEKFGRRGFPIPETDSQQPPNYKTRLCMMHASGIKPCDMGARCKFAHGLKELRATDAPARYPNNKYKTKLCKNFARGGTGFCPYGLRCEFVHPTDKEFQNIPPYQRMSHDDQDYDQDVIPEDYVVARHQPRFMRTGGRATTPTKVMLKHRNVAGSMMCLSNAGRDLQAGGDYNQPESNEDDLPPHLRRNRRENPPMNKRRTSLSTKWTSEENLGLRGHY
Kind of experiment: MEX-5/TCR-2 RNA interaction inhibitors, dose response, biochemical, C. elegans, fluorescence polarization (AID 1960).

In experiment [7] the target is T4, Endoribonuclease toxin MazF (Escherichia coli K-12, UniProt P0AE70).
T4 sequence (P0AE70 whole entry): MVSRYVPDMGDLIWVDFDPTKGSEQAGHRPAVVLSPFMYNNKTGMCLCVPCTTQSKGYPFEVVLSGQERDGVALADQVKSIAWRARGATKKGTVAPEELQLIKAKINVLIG
Kind of experiment: MazF toxin RNase activators, dose response, biochemical, fluorescence, single-stranded RNA substrate, uHTS hits (AID 588481). The class given is functional.

Experiment [8] concerns the target T4, Endoribonuclease toxin MazF. Kind of experiment: fluorescent RNA oligo signal without MazF, dose response, counter-screen for MazEF activator project, biochemical, fluorescence, single-stranded RNase substrate (AID 588502). The class given is functional. (In general: A counterscreen serves to expose hits that act by an unwanted route or on another target.)
The target of experiment [9] is T5, RNA-binding protein pos-1 (Caenorhabditis elegans, UniProt G5EF15).
T5 sequence (G5EF15 whole entry): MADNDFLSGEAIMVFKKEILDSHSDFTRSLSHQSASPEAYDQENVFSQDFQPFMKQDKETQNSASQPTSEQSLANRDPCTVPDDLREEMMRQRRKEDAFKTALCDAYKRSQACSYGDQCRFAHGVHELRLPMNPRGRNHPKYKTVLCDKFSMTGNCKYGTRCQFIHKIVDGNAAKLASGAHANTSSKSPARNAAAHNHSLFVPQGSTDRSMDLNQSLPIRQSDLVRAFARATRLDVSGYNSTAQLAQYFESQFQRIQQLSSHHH
Nature of the experiment: inhibitors of POS-1/mex-3 RNA binding, dose response, biochemical, fluorescence polarization (AID 1964).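 Note: purified POS-1 fused to maltose binding protein made in E. coli; potency of compounds blocking POS-1 binding to fluorescent RNA.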

The target in experiment [10] is Voltage-gated inwardly rectifying potassium channel KCNH2 (Homo sapiens, UniProt Q12809). The settings on record: Potency.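 Note: confirmatory quantitative high-throughput screen measuring inhibition of hERG channel activity.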
In experiment [11] the target is Delta-type opioid receptor (Homo sapiens, UniProt P41143). Kind of experiment: Counterscreen for agonists of heterodimerization of the mu 1 (OPRM1) and delta 1 (OPRD1) opioid receptors: Luminescence-based cell-based high throughput dose response assay to identify agonists of OPRD1 homodimerization. [Related pubchem assays (depositor defined):AID504326, AID504355, AID504692, AID504904, AID504905]. The class given is functional.

Experiment [12] addresses 5-hydroxytryptamine receptor 5A (Homo sapiens, UniProt P47898). Kind of experiment: Counterscreen for agonists of OPRM1-OPRD1 heterodimerization: luminescence-based cell-based high throughput dose response assay to identify agonists of 5-hydroxytryptamine (serotonin) 5A receptor (HTR5A). [Related pubchem assays (depositor defined):AID504326, AID504355, AID504692, AID504904, AID504905]. The class given is functional.

The next experiment deals with Mu-type opioid receptor (Homo sapiens, UniProt P35372). Nature of the experiment: Counterscreen for agonists of heterodimerization of the mu 1 (OPRM1) and delta 1 (OPRD1) opioid receptors: Luminescence-based cell-based high throughput dose response assay to identify agonists of OPRM1 homodimerization. The class given is functional.
In a further experiment the test system is HeLa. Kind of experiment: HeLa cell cytotoxicity, dose response, cytotoxicity control for MITF activator project, CellTiter-Glo luminescence, cherry-pick samples (AID 540259). The class given is functional, cell-based. The settings on record: Homo sapiens. In general terms: Cellular ATP, detected with luciferase, serves as a proxy for viable cell number.

In experiment [13] the target is T6, Ubiquitin-conjugating enzyme E2 N (Homo sapiens, UniProt P61088).
T6 sequence (P61088 whole entry): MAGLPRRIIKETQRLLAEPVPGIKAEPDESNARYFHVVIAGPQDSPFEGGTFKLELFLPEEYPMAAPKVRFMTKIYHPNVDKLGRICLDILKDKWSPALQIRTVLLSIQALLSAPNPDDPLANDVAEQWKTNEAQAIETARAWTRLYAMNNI
The class given is functional.

For experiment [14], the target named is T6, Ubiquitin-conjugating enzyme E2 N. The class given is functional. The source holds these as a separate data set.
The next experiment has as its target T7, Bcl-2-related protein A1 (Mus musculus, UniProt Q07440).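 Note: confirmatory dose–response counterscreen on Bfl-1, used to check hits from a UBC13 polyubiquitin inhibitor campaign.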
T7 sequence (Q07440 whole entry): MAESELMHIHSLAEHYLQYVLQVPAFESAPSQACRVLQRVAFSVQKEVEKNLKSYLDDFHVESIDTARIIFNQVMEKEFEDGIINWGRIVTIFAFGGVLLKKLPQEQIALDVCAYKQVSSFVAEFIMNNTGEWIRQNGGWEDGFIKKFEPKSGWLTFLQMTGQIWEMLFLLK
The class given is functional.

Experiment [15] concerns the target T8, Rac GTPase-activating protein 1 (Homo sapiens, UniProt Q9H0H5).
T8 sequence (Q9H0H5 whole entry): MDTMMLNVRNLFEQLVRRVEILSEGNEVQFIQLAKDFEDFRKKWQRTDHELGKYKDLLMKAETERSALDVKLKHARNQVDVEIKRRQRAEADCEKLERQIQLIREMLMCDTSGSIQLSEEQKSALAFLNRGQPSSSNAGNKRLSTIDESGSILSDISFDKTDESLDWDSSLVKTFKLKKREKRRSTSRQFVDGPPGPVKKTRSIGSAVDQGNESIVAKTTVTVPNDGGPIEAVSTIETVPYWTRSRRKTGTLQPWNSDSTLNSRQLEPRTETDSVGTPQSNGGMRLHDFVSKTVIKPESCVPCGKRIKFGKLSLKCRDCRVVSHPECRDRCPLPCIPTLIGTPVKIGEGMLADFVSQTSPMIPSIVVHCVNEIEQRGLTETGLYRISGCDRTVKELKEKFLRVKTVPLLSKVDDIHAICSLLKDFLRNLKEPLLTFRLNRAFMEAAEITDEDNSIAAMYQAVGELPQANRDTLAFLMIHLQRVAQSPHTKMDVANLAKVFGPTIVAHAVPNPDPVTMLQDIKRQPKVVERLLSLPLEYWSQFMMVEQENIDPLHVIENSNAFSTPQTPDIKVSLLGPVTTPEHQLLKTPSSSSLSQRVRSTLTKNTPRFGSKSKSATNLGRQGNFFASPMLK
Kind of experiment: MgcRacGAP GTPase-activating activity inhibitors, confirmation, biochemical, ADP Hunter fluorescence, primary and confirmatory (AID 624330). The class given is functional.

The target in a further experiment is Nonstructural protein 1 (Influenza A virus, UniProt Q194T2). The class given is functional, Influenza A virus (A/California/07/2009(H1N1)).
The target in the next experiment is Cytochrome P450 3A4 (Homo sapiens, UniProt P08684). The note with it: Potency.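 Note: confirmatory qHTS run detecting inhibitors and substrates of CYP3A4.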
Sequence of Cytochrome P450 3A4 (P08684 whole entry): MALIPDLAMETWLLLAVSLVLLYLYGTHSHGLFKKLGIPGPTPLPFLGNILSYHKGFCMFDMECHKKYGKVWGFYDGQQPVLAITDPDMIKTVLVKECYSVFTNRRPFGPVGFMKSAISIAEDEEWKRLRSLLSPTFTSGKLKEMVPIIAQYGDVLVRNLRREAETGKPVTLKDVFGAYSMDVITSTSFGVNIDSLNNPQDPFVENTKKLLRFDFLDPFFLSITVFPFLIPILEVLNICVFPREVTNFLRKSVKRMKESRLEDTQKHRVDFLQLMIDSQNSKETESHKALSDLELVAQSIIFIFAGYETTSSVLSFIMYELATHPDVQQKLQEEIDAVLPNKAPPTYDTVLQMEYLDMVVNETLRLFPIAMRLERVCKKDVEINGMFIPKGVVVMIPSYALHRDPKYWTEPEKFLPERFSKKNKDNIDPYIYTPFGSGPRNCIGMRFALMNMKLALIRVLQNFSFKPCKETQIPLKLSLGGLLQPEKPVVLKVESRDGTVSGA

Sequence of Voltage-gated inwardly rectifying potassium channel KCNH2 (Q12809 whole entry): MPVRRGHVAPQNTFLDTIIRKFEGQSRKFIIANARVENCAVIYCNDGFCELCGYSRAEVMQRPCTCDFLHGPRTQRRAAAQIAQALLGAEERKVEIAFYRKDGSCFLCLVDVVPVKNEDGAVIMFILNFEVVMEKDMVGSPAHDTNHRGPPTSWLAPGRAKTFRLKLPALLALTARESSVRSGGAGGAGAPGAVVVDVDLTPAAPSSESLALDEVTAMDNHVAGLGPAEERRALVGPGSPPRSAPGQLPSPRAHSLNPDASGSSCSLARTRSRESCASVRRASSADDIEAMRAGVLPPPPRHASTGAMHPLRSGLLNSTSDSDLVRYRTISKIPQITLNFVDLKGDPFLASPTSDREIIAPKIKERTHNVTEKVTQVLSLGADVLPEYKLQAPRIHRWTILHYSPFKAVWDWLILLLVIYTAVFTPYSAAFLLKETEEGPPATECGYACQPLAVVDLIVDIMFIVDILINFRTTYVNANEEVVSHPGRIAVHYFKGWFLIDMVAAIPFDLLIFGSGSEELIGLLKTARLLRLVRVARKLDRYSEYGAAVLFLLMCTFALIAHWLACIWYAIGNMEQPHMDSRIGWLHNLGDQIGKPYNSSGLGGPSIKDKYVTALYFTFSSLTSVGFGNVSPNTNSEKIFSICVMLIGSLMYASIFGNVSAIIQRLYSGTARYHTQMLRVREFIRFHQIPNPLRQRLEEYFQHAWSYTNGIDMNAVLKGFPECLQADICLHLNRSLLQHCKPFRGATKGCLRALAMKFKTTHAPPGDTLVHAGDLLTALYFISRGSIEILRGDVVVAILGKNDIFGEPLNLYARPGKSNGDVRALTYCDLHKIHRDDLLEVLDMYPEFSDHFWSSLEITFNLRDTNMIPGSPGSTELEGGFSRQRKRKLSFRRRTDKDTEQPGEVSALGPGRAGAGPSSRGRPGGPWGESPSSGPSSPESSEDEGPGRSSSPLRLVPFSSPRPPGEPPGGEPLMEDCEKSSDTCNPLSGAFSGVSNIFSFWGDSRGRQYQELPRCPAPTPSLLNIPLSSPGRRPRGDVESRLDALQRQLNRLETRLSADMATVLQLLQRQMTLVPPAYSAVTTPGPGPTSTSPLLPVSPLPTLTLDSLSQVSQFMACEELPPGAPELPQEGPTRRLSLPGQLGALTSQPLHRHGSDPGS
Sequence of Delta-type opioid receptor (P41143 whole entry): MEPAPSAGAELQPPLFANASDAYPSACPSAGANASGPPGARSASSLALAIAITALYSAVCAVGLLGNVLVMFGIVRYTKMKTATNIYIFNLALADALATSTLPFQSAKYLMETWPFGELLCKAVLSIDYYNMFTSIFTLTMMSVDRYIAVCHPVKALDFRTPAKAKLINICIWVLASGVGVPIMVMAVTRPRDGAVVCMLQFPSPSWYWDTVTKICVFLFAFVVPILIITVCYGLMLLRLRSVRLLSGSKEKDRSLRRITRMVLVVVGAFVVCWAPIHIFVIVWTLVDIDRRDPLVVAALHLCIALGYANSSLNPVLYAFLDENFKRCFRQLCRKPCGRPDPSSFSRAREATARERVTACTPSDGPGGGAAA
Sequence of Mu-type opioid receptor (P35372 whole entry): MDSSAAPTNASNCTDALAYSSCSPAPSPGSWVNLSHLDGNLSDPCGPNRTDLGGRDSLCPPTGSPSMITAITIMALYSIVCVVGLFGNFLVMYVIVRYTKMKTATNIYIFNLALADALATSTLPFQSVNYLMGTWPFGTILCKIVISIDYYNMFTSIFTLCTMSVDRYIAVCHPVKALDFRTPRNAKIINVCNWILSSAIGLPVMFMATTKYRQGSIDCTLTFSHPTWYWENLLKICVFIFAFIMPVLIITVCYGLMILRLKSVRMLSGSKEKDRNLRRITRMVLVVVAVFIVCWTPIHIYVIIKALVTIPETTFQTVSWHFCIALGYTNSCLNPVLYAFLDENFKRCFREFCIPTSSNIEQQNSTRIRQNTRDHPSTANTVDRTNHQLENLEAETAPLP
Sequence of 72 kDa type IV collagenase (P08253 whole entry): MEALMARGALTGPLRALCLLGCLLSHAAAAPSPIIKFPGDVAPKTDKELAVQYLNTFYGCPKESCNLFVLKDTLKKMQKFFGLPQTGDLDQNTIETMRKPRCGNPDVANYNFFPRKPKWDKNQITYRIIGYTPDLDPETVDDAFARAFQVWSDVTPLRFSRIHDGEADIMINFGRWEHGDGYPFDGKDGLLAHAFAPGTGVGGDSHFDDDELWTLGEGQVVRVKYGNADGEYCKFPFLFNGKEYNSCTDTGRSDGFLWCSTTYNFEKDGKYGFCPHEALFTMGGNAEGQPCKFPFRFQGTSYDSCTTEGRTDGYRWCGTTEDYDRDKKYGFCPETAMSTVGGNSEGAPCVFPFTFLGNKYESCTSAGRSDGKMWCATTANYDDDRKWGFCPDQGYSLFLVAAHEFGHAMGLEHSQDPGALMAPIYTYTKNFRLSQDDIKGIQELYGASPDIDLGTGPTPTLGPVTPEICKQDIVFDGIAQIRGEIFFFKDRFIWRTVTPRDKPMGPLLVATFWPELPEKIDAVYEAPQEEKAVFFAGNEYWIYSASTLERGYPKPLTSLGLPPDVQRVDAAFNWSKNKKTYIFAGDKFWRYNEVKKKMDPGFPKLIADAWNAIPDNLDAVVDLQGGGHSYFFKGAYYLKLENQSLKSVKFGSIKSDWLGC
Sequence of Nonstructural protein 1 (Q194T2 whole entry): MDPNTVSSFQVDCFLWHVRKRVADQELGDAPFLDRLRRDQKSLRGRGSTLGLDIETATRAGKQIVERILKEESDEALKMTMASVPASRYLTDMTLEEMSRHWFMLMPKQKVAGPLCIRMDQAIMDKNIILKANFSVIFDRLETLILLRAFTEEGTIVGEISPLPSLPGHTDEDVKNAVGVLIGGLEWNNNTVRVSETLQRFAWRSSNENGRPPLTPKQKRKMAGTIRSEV
Sequence of 5-hydroxytryptamine receptor 5A (P47898 whole entry): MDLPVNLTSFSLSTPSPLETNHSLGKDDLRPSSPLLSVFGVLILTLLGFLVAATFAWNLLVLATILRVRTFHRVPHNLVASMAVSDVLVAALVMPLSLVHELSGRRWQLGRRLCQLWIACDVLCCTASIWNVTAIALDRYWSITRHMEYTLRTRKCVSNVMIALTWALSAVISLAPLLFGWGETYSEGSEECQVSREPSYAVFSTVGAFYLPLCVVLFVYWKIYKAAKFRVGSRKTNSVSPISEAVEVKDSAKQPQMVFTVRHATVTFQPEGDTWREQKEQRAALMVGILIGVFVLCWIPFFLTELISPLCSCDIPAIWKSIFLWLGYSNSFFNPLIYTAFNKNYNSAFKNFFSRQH
Sequence of 26S proteasome non-ATPase regulatory subunit 14 (O00487 whole entry): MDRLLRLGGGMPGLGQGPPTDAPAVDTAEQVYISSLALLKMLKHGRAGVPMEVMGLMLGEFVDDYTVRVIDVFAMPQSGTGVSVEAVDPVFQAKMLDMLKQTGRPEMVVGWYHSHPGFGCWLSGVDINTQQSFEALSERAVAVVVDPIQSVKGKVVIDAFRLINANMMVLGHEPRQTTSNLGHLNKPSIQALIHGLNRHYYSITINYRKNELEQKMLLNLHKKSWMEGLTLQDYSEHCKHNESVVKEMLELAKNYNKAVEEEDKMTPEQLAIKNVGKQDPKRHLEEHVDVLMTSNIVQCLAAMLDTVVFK

As for `O=c1c(Cl)c(N/N=C/c2ccc(Br)cc2)cnn1-c1ccccc1`, the IC50 is 21.2 µM (active) in [1]; > 100 µM (inactive) on Prothrombin; > 80 µM (inactive) in experiment [2]; > 80 µM (inactive) in experiment [3]; > 100 µM (inactive) in experiment [4]; 21.6 µM (inactive) in experiment [5].
Regarding `Cn1nc(C(F)(F)F)cc1-c1ccc(/C=C(\C#N)C(=O)c2ccccc2)s1`, the EC50 (in general, the concentration needed to bring the measured effect to its halfway point) in experiment [6] was 11.2 µM (inconclusive); in experiment [7] it was > 99 µM (inactive); in experiment [8] it was > 99 µM (inactive); in [9] it was 21.1 µM (inconclusive).
Take `CN(C(=O)Cc1ccc(Cl)c(Cl)c1)C(CN1CCCC1)c1cccc(OCC(=O)O)c1` (stereo not given): the AC50 (commonly the midpoint of the concentration-response curve, whichever way the signal moves) in [10] was 35.5 µM (inconclusive). The results for the EC50 (in experiment [11]; in experiment [12]; on Mu-type opioid receptor) were 17.2 µM (inactive), > 92.5 µM (inactive) and > 92.5 µM (inactive), respectively.
On to `Cc1nnc2sc(-c3ccc(N(C)C)cc3)nn2c1=O`, for which, in the experiment with HeLa, the AC50 was 55.2 µM (active).
On to `COc1cc(C2C(C#N)=C(N)Oc3[nH]nc(-c4cccs4)c32)cc(OC)c1O` (stereo not given), for which the IC50 in experiment [13] was 3.38 µM (active); in [14], 1.47 µM (active); on Bcl-2-related protein A1 it was > 20 µM (inactive). Moreover, the values for the EC50 in [7] and in experiment [8] were > 99 µM (inactive) and 13.3 µM (active), respectively.
`CN(C)c1ccc(Cc2ccc(N(C)C)cc2)cc1`: the IC50 in experiment [15] is 73.2 µM (active); at Nonstructural protein 1, 36.6 µM (active). For the same molecule, the values for the AC50 (in [10]; at Cytochrome P450 3A4) were 70.8 µM (inconclusive) and 12.6 µM (inconclusive), respectively.
In the case of `Nc1ccc(Cc2ccc(N)c(Cl)c2)cc1Cl`, the AC50 in experiment [10] is 79.4 µM (inconclusive).
